Results as given in patent US9049864B2, “Pyridazinone herbicidal compounds” (Syngenta Limited, priority 2012, dated 2015).

Assays:
Assay in all cases: Post-emergence herbicidal glasshouse test, percentage damage to the plant
Format in all cases: in vivo
Details in all cases: post-emergence, 1000 g/ha, evaluated after 13 days
[1] = tested on: Alopecurus myosuroides (ALOMY)
Method: (§1) Seeds of a variety of test species are sown in standard soil in pots:—Solanum nigrum (SOLNI), Amaranthus retoflexus (AMARE), Setaria faberi (SETFA), Alopecurus myosuroides (ALOMY), Echinochloa crus-galli (ECHCG), Ipomoea hederacea (IPOHE). After 8 days cultivation (post-emergence) under controlled conditions in a glasshouse (at 24/16° C., day/night; 14 hours light; 65% humidity), the plants are sprayed with an aqueous spray solution derived from the formulation of the technical active ingredient in acetone/water (50:50) solution containing 0.5% Tween 20 (polyoxyethelyene sorbitan monolaurate, CAS RN 9005-64-5). Compounds are applied at 1000 g/ha. The test plants are then grown in a glasshouse under controlled conditions in a glasshouse (at 24/16° C., day/night; 14 hours light; 65% humidity) and watered twice daily. After 13 days, the test is evaluated for the percentage damage caused to the plant. The biological activities are shown in the following table on a five point scale (5=80-100%; 4=60-79%; 3=40-59%; 2=20-39%; 1=0-19%). A comparative experiment is conducted to compare the biological efficacy of a compound of the present invention with those of WO 2011/045271. The test is performed as outlined above using the following compounds. Three different application rates are employed (250 g/ha, 500 g/ha and 1000 g/ha).

[2] = tested on: Amaranthus retoflexus (AMARE)
Method: as §1

[3] = tested on: Echinochloa crus-galli (ECHCG)
Method: as §1

[4] = tested on: Ipomoea hederacea (IPOHE)
Method: as §1

Setaria faberi (SETFA) = tested on: Setaria faberi (SETFA)
Method: as §1

Solanum nigrum (SOLNI) = tested on: Solanum nigrum (SOLNI)
Method: as §1

| SMILES | POST Application ALOMY, percentage damage (five point scale) [1] | POST Application AMARE, percentage damage (five point scale) [2] | POST Application ECHCG, percentage damage (five point scale) [3] | POST Application IPOHE, percentage damage (five point scale) [4] | POST Application SETFA, percentage damage (five point scale) (Setaria faberi (SETFA)) | POST Application SOLNI, percentage damage (five point scale) (Solanum nigrum (SOLNI)) |
| --- | --- | --- | --- | --- | --- | --- |
| Cc1nn(C)c(=O)c(-n2c(Cl)c(Cl)c3ccccc32)c1OC(=O)OCC(C)C [Compound 3.010] | 1 (1=0-19%) | 5 (5=80-100%) | 3 (3=40-59%) | 5 (5=80-100%) | 1 (1=0-19%) | 5 (5=80-100%) |
| CN1N=C(COCC2CCCCC2)C(=O)C(n2c(Cl)c(Cl)c3ccccc32)C1=O (stereo not drawn) [Compound 2.011] | 1 (1=0-19%) | 2 (2=20-39%) | 1 (1=0-19%) | 5 (5=80-100%) | 1 (1=0-19%) | 4 (4=60-79%) |
| CN(C)C1=NN(C)C(=O)C(n2c(Cl)c(Cl)c3ccccc32)C1=O (stereo not drawn) [Compound 2.021] | 2 (2=20-39%) | 3 (3=40-59%) | 1 (1=0-19%) | 3 (3=40-59%) | 1 (1=0-19%) | 4 (4=60-79%) |
| CC(C)C1=NN(C)C(=O)C(n2c(Cl)c(Cl)c3ccccc32)C1=O (stereo not drawn) [Compound 2.013] | 1 (1=0-19%) | 3 (3=40-59%) | 1 (1=0-19%) | 2 (2=20-39%) | 1 (1=0-19%) | 4 (4=60-79%) |
| Cc1nn(C)c(=O)c(-n2c(Cl)c(Cl)c3ccccc32)c1OC(=O)C(C)C [Compound 3.003] | 1 (1=0-19%) | 5 (5=80-100%) | 4 (4=60-79%) | 5 (5=80-100%) | 1 (1=0-19%) | 5 (5=80-100%) |
| CN1N=CC(=O)C(n2ncc3ccccc32)C1=O (stereo not drawn) [Compound 1.009] | 1 (1=0-19%) | 4 (4=60-79%) | 1 (1=0-19%) | 1 (1=0-19%) | 1 (1=0-19%) | 4 (4=60-79%) |
| CC1=NN(C)C(=O)C(n2c(C)c(Cl)c3ccccc32)C1=O (stereo not drawn) [Compound 4.027] | 3 (3=40-59%) | 5 (5=80-100%) | 5 (5=80-100%) | 5 (5=80-100%) | 4 (4=60-79%) | 5 (5=80-100%) |
| CC1=NN(C)C(=O)C(n2c(Br)c(Br)c3ccccc32)C1=O (stereo not drawn) [Compound 1.024] | 1 (1=0-19%) | 5 (5=80-100%) | 2 (2=20-39%) | 5 (5=80-100%) | 2 (2=20-39%) | 5 (5=80-100%) |
| CSC1=NN(C)C(=O)C(n2c(Cl)c(Cl)c3ccccc32)C1=O (stereo not drawn) [Compound 2.003, 4-(2,3-dichloroindol-1-yl)-2-methyl-6-methylsulfanyl-pyridazine-3,5-dione] | 1 (1=0-19%) | 2 (2=20-39%) | 1 (1=0-19%) | 4 (4=60-79%) | 1 (1=0-19%) | 2 (2=20-39%) |
| CN1N=CC(=O)C(n2ccc3c(Br)cccc32)C1=O (stereo not drawn) [Compound 1.005] | 1 (1=0-19%) | 2 (2=20-39%) | 1 (1=0-19%) | 2 (2=20-39%) | 3 (3=40-59%) | 5 (5=80-100%) |
| CC1=NN(C)C(=O)C(n2ccc3ccccc32)C1=O (stereo not drawn) [Compound 1.002] | 1 (1=0-19%) | 4 (4=60-79%) | 1 (1=0-19%) | 4 (4=60-79%) | 1 (1=0-19%) | 5 (5=80-100%) |
| CC1=NN(C)C(=O)C(n2c(Br)c(Br)c3cc(Br)ccc32)C1=O (stereo not drawn) [Compound 1.022] | 1 (1=0-19%) | 3 (3=40-59%) | 2 (2=20-39%) | 5 (5=80-100%) | 1 (1=0-19%) | 5 (5=80-100%) |
| CCCCC1=NN(C)C(=O)C(n2c(Cl)c(Cl)c3ccccc32)C1=O (stereo not drawn) [Compound 2.010] | 1 (1=0-19%) | 3 (3=40-59%) | 1 (1=0-19%) | 3 (3=40-59%) | 1 (1=0-19%) | 4 (4=60-79%) |
| Cc1nn(C)c(=O)c(-n2c(Cl)c(Cl)c3ccccc32)c1OC(=O)SC(C)(C)C [Compound 3.007] | 1 (1=0-19%) | 5 (5=80-100%) | 1 (1=0-19%) | 5 (5=80-100%) | 1 (1=0-19%) | 5 (5=80-100%) |
| CN1N=CC(=O)C(n2ccc3cc(Cl)ccc32)C1=O (stereo not drawn) [Compound 1.017] | 1 (1=0-19%) | 3 (3=40-59%) | 1 (1=0-19%) | 4 (4=60-79%) | 1 (1=0-19%) | 5 (5=80-100%) |
| CC[S+]([O-])C1=NN(C)C(=O)C(n2c(Cl)c(Cl)c3ccccc32)C1=O (stereo not drawn) [Compound 2.006] | 1 (1=0-19%) | 1 (1=0-19%) | 1 (1=0-19%) | 4 (4=60-79%) | 1 (1=0-19%) | 4 (4=60-79%) |
